Test results as given in patent US5591714A, “Derivatives of A82846” (priority 1994, dated 1997).
In brackets after ≈: the same amount, converted by molar mass.

Tests used:
Streptococcus pneumoniae = assay: In vivo activity, experimentally infected mice (ED50); details: Streptococcus pneumoniae infection; doses administered subcutaneously to mice 1 and 4 hours postinfection
Streptococcus pyogenes = assay: as above; details: Streptococcus pyogenes infection; doses administered subcutaneously to mice 1 and 4 hours postinfection
[1] = tested on: Streptococcus pneumoniae Park 1; assay type: cell-based
Experimental: (§1) The formula I compounds have in vitro and in vivo activity against Gram-positive pathogenic bacteria. The MIC's were determined using a standard agar-dilution assays.

[2] = tested on: Staphylococcus aureus S13E; assay type: cell-based
Experimental: as §1

Enterococcus faecium X66 = assay: MIC, standard agar-dilution assay; assay type: cell-based
Experimental: as §1
^b Formerly Streptococcus faecium X66

Escherichia coli EC14 = assay: MIC, standard agar-dilution assay; assay type: cell-based
Experimental: as §1

[3] = tested on: Staphylococcus aureus NRRL X1.1; assay: MIC, standard agar-dilution assay; assay type: cell-based
Experimental: as §1

Escherichia coli TEM = assay: MIC, standard agar-dilution assay; assay type: cell-based
Experimental: as §1

[4] = tested on: Staphylococcus aureus X400; assay: MIC, standard agar-dilution assay; assay type: cell-based
Experimental: as §1

[5] = tested on: Klebsiella pneumoniae X26; assay: MIC, standard agar-dilution assay; assay type: cell-based
Experimental: as §1

[6] = tested on: Haemophilus influenzae 76; assay: MIC, standard agar-dilution assay; assay type: cell-based
Experimental: as §1

[7] = tested on: Staphylococcus epidermidis 222; assay: MIC, standard agar-dilution assay; assay type: cell-based
Experimental: as §1

[8] = tested on: Streptococcus pyogenes C203; assay: MIC, standard agar-dilution assay; assay type: cell-based
Experimental: as §1

[9] = tested on: Staphylococcus epidermidis EPI270; assay: MIC, standard agar-dilution assay; assay type: cell-based
Experimental: as §1

[10] = tested on: Klebsiella pneumoniae X68; assay: MIC, standard agar-dilution assay; assay type: cell-based
Experimental: as §1

[11] = tested on: Staphylococcus aureus V41; assay: MIC, standard agar-dilution assay; assay type: cell-based
Experimental: as §1

[12] = tested on: Klebsiella pneumoniae KAE; assay: MIC, standard agar-dilution assay; assay type: cell-based
Experimental: as §1

[13] = tested on: Haemophilus influenzae C.L.; assay: MIC, standard agar-dilution assay; assay type: cell-based
Experimental: as §1

Escherichia coli N10 = assay: MIC, standard agar-dilution assay; assay type: cell-based
Experimental: as §1

[14] = tested on: Enterococcus faecalis 2041; assay: MIC, standard agar-dilution assay; assay type: cell-based
Experimental: as §1
^c Formerly Streptococcus faecalis 2041

SMILES: CN[C@H](CC(C)C)C(=O)N[C@H]1C(=O)N[C@@H](CC(N)=O)C(=O)N[C@H]2C(=O)N[C@H]3C(=O)N[C@H](C(=O)N[C@H](C(=O)O)c4cc(O)cc(O)c4-c4cc3ccc4O)[C@H](O[C@H]3C[C@](C)(NCc4ccc(Cl)cc4)[C@@H](O)[C@H](C)O3)c3ccc(cc3)Oc3cc2cc(c3O[C@@H]2O[C@H](CO)[C@@H](O)[C@H](O)[C@H]2O[C@H]2C[C@](C)(N)[C@@H](O)[C@H](C)O2)Oc2ccc(cc2Cl)[C@H]1O [Compound 21]
- ED50 (Streptococcus pneumoniae): 0.47 mg/kg/2
- ED50 (Streptococcus pyogenes): 0.29 mg/kg/2
- MIC [1]: .5 µg/mL (≈ 0.297 µM)
- MIC [2]: .25 µg/mL (≈ 0.149 µM)
- MIC (Enterococcus faecium X66): .5 µg/mL (≈ 0.297 µM)
- MIC (Escherichia coli EC14): > 128 µg/mL
- MIC [3]: .5 µg/mL (≈ 0.297 µM)
- MIC (Escherichia coli TEM): > 128 µg/mL
- MIC [4]: .5 µg/mL (≈ 0.297 µM)
- MIC [5]: > 128 µg/mL
- MIC [6]: > 128 µg/mL
- MIC [7]: .25 µg/mL (≈ 0.149 µM)
- MIC [8]: .5 µg/mL (≈ 0.297 µM)
- MIC [9]: .5 µg/mL (≈ 0.297 µM)
- MIC [10]: > 128 µg/mL
- MIC [11]: .5 µg/mL (≈ 0.297 µM)
- MIC [12]: > 128 µg/mL
- MIC [13]: > 128 µg/mL
- MIC (Escherichia coli N10): > 128 µg/mL
- MIC [14]: .5 µg/mL (≈ 0.297 µM)

SMILES: CCCCCN(C)[C@H](CC(C)C)C(=O)N[C@H]1C(=O)N[C@@H](CC(N)=O)C(=O)N[C@H]2C(=O)N[C@H]3C(=O)N[C@H](C(=O)N[C@H](C(=O)O)c4cc(O)cc(O)c4-c4cc3ccc4O)[C@H](O[C@H]3C[C@](C)(N)[C@@H](O)[C@H](C)O3)c3ccc(c(Cl)c3)Oc3cc2cc(c3O[C@@H]2O[C@H](CO)[C@@H](O)[C@H](O)[C@H]2O[C@H]2C[C@](C)(N)[C@@H](O)[C@H](C)O2)Oc2ccc(cc2Cl)[C@H]1O [Compound 35]
- MIC [1]: .25 µg/mL (≈ 0.15 µM)
- MIC [2]: .25 µg/mL (≈ 0.15 µM)
- MIC (Enterococcus faecium X66): .5 µg/mL (≈ 0.301 µM)
- MIC (Escherichia coli EC14): > 128 µg/mL
- MIC [3]: .5 µg/mL (≈ 0.301 µM)
- MIC (Escherichia coli TEM): > 128 µg/mL
- MIC [4]: .5 µg/mL (≈ 0.301 µM)
- MIC [5]: > 128 µg/mL
- MIC [6]: > 128 µg/mL
- MIC [7]: .5 µg/mL (≈ 0.301 µM)
- MIC [8]: .25 µg/mL (≈ 0.15 µM)
- MIC [9]: 1 µg/mL (≈ 0.601 µM)
- MIC [10]: > 128 µg/mL
- MIC [11]: .25 µg/mL (≈ 0.15 µM)
- MIC [12]: > 128 µg/mL
- MIC [13]: > 128 µg/mL
- MIC (Escherichia coli N10): > 128 µg/mL
- MIC [14]: .5 µg/mL (≈ 0.301 µM)

SMILES: CCCCCCCCc1ccc(CNC2(C)CC(OC3C(Oc4c5cc6cc4Oc4ccc(cc4Cl)C(OC4CC(C)(N)C(O)C(C)O4)C4NC(=O)C(NC(=O)C6NC(=O)C(CC(N)=O)NC(=O)C(NC(=O)C(CC(C)C)NC)C(O)c6ccc(c(Cl)c6)O5)c5ccc(O)c(c5)-c5c(O)cc(O)cc5C(C(=O)O)NC4=O)OC(CO)C(O)C3O)OC(C)C2O)cc1 (stereo not shown) [Compound 54]
- ED50 (Streptococcus pyogenes): 0.91 mg/kg/2
- MIC [1]: 4 µg/mL (≈ 2.23 µM)
- MIC [2]: 64 µg/mL (≈ 35.7 µM)
- MIC (Enterococcus faecium X66): 64 µg/mL (≈ 35.7 µM)
- MIC (Escherichia coli EC14): > 128 µg/mL
- MIC [3]: 32 µg/mL (≈ 17.8 µM)
- MIC (Escherichia coli TEM): > 128 µg/mL
- MIC [4]: 64 µg/mL (≈ 35.7 µM)
- MIC [5]: > 128 µg/mL
- MIC [6]: > 128 µg/mL
- MIC [7]: 64 µg/mL (≈ 35.7 µM)
- MIC [8]: 8 µg/mL (≈ 4.46 µM)
- MIC [9]: 64 µg/mL (≈ 35.7 µM)
- MIC [10]: > 128 µg/mL
- MIC [11]: 64 µg/mL (≈ 35.7 µM)
- MIC [12]: > 128 µg/mL
- MIC [13]: > 128 µg/mL
- MIC (Escherichia coli N10): > 128 µg/mL
- MIC [14]: 64 µg/mL (≈ 35.7 µM)

SMILES: CCCCCCCCOc1ccc(CNC2(C)CC(OC3C(Oc4c5cc6cc4Oc4ccc(cc4Cl)C(OC4CC(C)(N)C(O)C(C)O4)C4NC(=O)C(NC(=O)C6NC(=O)C(CC(N)=O)NC(=O)C(NC(=O)C(CC(C)C)NC)C(O)c6ccc(c(Cl)c6)O5)c5ccc(O)c(c5)-c5c(O)cc(O)cc5C(C(=O)O)NC4=O)OC(CO)C(O)C3O)OC(C)C2O)cc1 (stereo not shown) [Compound 55]
- ED50 (Streptococcus pyogenes): 0.73 mg/kg/2
- MIC [1]: 2 µg/mL (≈ 1.1 µM)
- MIC [2]: 8 µg/mL (≈ 4.42 µM)
- MIC (Enterococcus faecium X66): 8 µg/mL (≈ 4.42 µM)
- MIC (Escherichia coli EC14): > 128 µg/mL
- MIC [3]: 8 µg/mL (≈ 4.42 µM)
- MIC (Escherichia coli TEM): > 128 µg/mL
- MIC [4]: 16 µg/mL (≈ 8.84 µM)
- MIC [5]: > 128 µg/mL
- MIC [6]: > 128 µg/mL
- MIC [7]: 8 µg/mL (≈ 4.42 µM)
- MIC [8]: 4 µg/mL (≈ 2.21 µM)
- MIC [9]: 16 µg/mL (≈ 8.84 µM)
- MIC [10]: > 128 µg/mL
- MIC [11]: 4 µg/mL (≈ 2.21 µM)
- MIC [12]: > 128 µg/mL
- MIC [13]: > 128 µg/mL
- MIC (Escherichia coli N10): > 128 µg/mL
- MIC [14]: 8 µg/mL (≈ 4.42 µM)
